In paper PMC9917249, “Zinc Inhibits the GABAAR/ATPase during Postnatal Rat Development: The Role of Cysteine Residue” (International Journal of Molecular Sciences, 2023):

Target: T1, homomeric GABAAR β3 (Rattus norvegicus, UniProt P63079)
T1 construct: gene Gabrb3
Assay: BCECF fluorescence, GABA-mediated HCO3- efflux
Format: cell-based
Conditions: 25 mM HCO3-; pH 7.4

T1 sequence (P63079 26-473): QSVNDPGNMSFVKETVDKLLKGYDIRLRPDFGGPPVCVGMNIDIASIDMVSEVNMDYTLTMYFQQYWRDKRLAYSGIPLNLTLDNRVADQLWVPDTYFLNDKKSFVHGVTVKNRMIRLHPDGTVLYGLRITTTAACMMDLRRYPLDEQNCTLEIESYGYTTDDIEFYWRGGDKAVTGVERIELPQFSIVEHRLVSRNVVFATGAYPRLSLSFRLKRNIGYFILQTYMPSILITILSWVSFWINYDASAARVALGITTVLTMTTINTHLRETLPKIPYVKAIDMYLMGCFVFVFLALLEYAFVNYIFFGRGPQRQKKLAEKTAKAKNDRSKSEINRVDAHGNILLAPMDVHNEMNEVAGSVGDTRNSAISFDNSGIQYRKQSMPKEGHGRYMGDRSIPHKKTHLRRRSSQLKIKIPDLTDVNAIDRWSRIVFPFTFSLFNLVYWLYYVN

maximum peak fluorescence change at 100 μM GABA: 14.0 ± 1.3%
Structure (SMILES): NCCCC(=O)O [GABA]
